For 20 compounds, TGI and GI50 results are on record in PubChem BioAssay (NCI).

Structures are written as SMILES.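 Five concentrations, 48 hours, 96-well plates. Here, GI50 denotes the concentration required for 50% inhibition of growth. TGI denotes the concentration required for complete inhibition of growth.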 A value given as a limit tells only on which side of the number the result lay.

Among the test systems are EKVX NSCLC; HCT-15 colon; HT29 colon; M14 melanoma; OVCAR-3 ovarian; SK-OV-3 ovarian; SW-620 colon; TK-10 renal; UACC-62 melanoma.
Test in all cases: NCI tumour cell line growth inhibition, 48 h

With `CCOC(=O)C1(Br)C(c2ccccc2)NC(=O)N(C2OC(COC(=O)c3ccccc3)C(OC(=O)c3ccccc3)C2OC(=O)c2ccccc2)C1(C)Br` (stereo not drawn), the TGI in the experiment with EKVX NSCLC was over 94.5 µM; in the experiment on HCT-15 colon it was over 50.1 µM; with HT29 colon, over 100 µM; in the experiment with M14 melanoma it was over 63.6 µM; in the experiment with OVCAR-3 ovarian it was over 89.6 µM; in the experiment with SK-OV-3 ovarian it was over 100 µM. Besides, the TGI in the experiment with SW-620 colon was 22.4 µM; with TK-10 renal it was over 100 µM; with UACC-62 melanoma, 60.1 µM.

Take `NC1=NN(c2ccccc2)C(=O)C1/C(=N\NC(=O)c1cc2ccccc2cc1O)C(=O)Nc1nc([N+](=O)[O-])cs1` (stereo not drawn): the TGI is over 100 µM in the experiment with EKVX NSCLC; over 74.1 µM in the experiment with HCT-15 colon; over 93 µM in the experiment on HT29 colon; over 95.5 µM in the experiment on M14 melanoma; 98.6 µM with OVCAR-3 ovarian; over 100 µM in the experiment on SK-OV-3 ovarian. Also, the TGI in the experiment on SW-620 colon is over 82.3 µM; in the experiment on TK-10 renal, over 100 µM; in the experiment on UACC-62 melanoma, 56.6 µM.

As to `O=C(O)c1c([N+](=O)[O-])cc(C(F)(F)F)cc1[N+](=O)[O-]`, the TGI in the experiment on EKVX NSCLC, in the experiment with HCT-15 colon, in the experiment with HT29 colon, in the experiment with M14 melanoma, in the experiment with OVCAR-3 ovarian and in the experiment with SW-620 colon was over 100 µM each time. In addition, the TGI with TK-10 renal is over 100 µM.

Turning to `O=C(c1ccco1)c1ccccc1C(=O)c1ccco1`, the TGI with EKVX NSCLC, with HCT-15 colon, in the experiment with HT29 colon, in the experiment with M14 melanoma, with OVCAR-3 ovarian and in the experiment with SW-620 colon was over 100 µM throughout. The TGI with TK-10 renal and in the experiment on UACC-62 melanoma was over 100 µM throughout.

On to `CN(C)CCNC(=O)c1cccc2ccc(-c3cccnc3)nc12`, for which the TGI was found to be 19.8 µM in the experiment on EKVX NSCLC; 17.4 µM in the experiment on HCT-15 colon; 31.9 µM with HT29 colon; 20.7 µM in the experiment on M14 melanoma; 36.9 µM in the experiment with OVCAR-3 ovarian; 36.9 µM in the experiment with SK-OV-3 ovarian. In addition, the TGI in the experiment with SW-620 colon turned out to be 27.5 µM; in the experiment on TK-10 renal it was 7.05 µM; with UACC-62 melanoma, 14.8 µM.

For `COc1cc[c]([Sb]([Br])([CH]=C(C)C)([CH]=C(C)C)[CH]=C(C)C)cc1`, the GI50 in the experiment with EKVX NSCLC is 2.28 µM; in the experiment on HCT-15 colon it was 40.5 µM; in the experiment with HT29 colon, 4.89 µM; in the experiment on M14 melanoma it was 6.29 µM; in the experiment on SK-OV-3 ovarian it was 8.94 µM; in the experiment on SW-620 colon, 6.46 µM. The results for the GI50 with TK-10 renal and in the experiment with UACC-62 melanoma were 18.8 µM and 3.41 µM, respectively. The TGI is 39.6 µM in the experiment with EKVX NSCLC; over 100 µM with HCT-15 colon; over 100 µM in the experiment on HT29 colon; 42.5 µM in the experiment with M14 melanoma; 48.3 µM in the experiment on SK-OV-3 ovarian; over 100 µM in the experiment on SW-620 colon. Further, the TGI in the experiment on TK-10 renal and in the experiment with UACC-62 melanoma was over 100 µM each time.

On to `CCCCCCCCCCCCC/C=C1\C[C@H](O)COC1=O`, for which the TGI in the experiment with EKVX NSCLC is 32 µM; in the experiment on HCT-15 colon, 32.2 µM; in the experiment with HT29 colon, 30.6 µM; in the experiment with M14 melanoma it was 28.3 µM; in the experiment on OVCAR-3 ovarian, 31.7 µM; in the experiment with SK-OV-3 ovarian, 35.1 µM. Further, the TGI in the experiment with SW-620 colon was determined as 28.8 µM; with TK-10 renal, 31.8 µM; with UACC-62 melanoma it was 26.8 µM.

In the case of `CC1(C(=O)NCCN(CCNC(=O)C2(C)CC3(C)CC(C)(C2)C(=O)NC3=O)CCNC(=O)C2(C)CC3(C)CC(C)(C2)C(=O)NC3=O)CC2(C)CC(C)(C1)C(=O)NC2=O` (stereo not drawn), the TGI in the experiment on EKVX NSCLC, in the experiment on HCT-15 colon, with HT29 colon, with M14 melanoma, in the experiment on OVCAR-3 ovarian and with SK-OV-3 ovarian was over 100 µM each time. The TGI in the experiment with SW-620 colon and in the experiment with UACC-62 melanoma was over 100 µM in each case.

In the case of `COc1ccc2nc3ccccc3c(NCCCCCN(CCCl)CCCl)c2c1`, the TGI in the experiment on EKVX NSCLC was determined as 4.1 µM; with HT29 colon, 2.84 µM; in the experiment on M14 melanoma, 0.184 µM; in the experiment with OVCAR-3 ovarian it was 0.963 µM; in the experiment with SW-620 colon, 1.19 µM; in the experiment with TK-10 renal, 1.38 µM. Also, in the experiment with UACC-62 melanoma, the TGI amounted to 1.8 µM.

For the compound `O=C(c1ccccn1)c1nc(-c2ccc(Cl)c(Cl)c2)nc2ccc(Cl)cc12`, the TGI in the experiment on EKVX NSCLC, with HCT-15 colon, in the experiment with HT29 colon, in the experiment with M14 melanoma, in the experiment with OVCAR-3 ovarian and with SK-OV-3 ovarian was over 100 µM each time. In addition, the TGI with SW-620 colon, in the experiment with TK-10 renal and in the experiment with UACC-62 melanoma was over 100 µM each time.

Take `C/C=C/C(=O)[C@@H](O)C(C)C`: the TGI with EKVX NSCLC, with HCT-15 colon, in the experiment on HT29 colon, in the experiment with OVCAR-3 ovarian, in the experiment with SK-OV-3 ovarian and with SW-620 colon was over 100 µM in each case. The TGI with TK-10 renal and with UACC-62 melanoma was over 100 µM throughout.

With `Clc1ccccc1C1N2CCCCC2[C@@H]2c3[nH]c4ccccc4c3CCN12` (stereo partly drawn), the TGI was over 100 µM with EKVX NSCLC; 29.9 µM in the experiment on HCT-15 colon; 31.8 µM in the experiment with HT29 colon; 31.3 µM with M14 melanoma; 32.6 µM in the experiment with OVCAR-3 ovarian; 55 µM in the experiment on SK-OV-3 ovarian. In addition, the TGI in the experiment on SW-620 colon was found to be 31 µM; in the experiment on TK-10 renal it was 60 µM; with UACC-62 melanoma, 30.2 µM.

With `N.N.N.N.N.N#N.[Cl-].[Os+7]`, the GI50 in the experiment with EKVX NSCLC, in the experiment with HCT-15 colon, with M14 melanoma, in the experiment with OVCAR-3 ovarian, in the experiment on SW-620 colon and in the experiment on TK-10 renal was over 100 µM each time. Further, the GI50 in the experiment with UACC-62 melanoma was over 100 µM. The TGI in the experiment on EKVX NSCLC, in the experiment with HCT-15 colon, in the experiment on M14 melanoma, in the experiment on OVCAR-3 ovarian, in the experiment on SW-620 colon and with TK-10 renal was over 100 µM each time. In addition, the TGI in the experiment with UACC-62 melanoma was over 100 µM.

On to `COc1cc(-c2nc3ccccc3[nH]2)ccc1OCC(=O)N=Nc1c(O)[nH]c2ccc(Cl)cc12`, for which the GI50 with EKVX NSCLC was 4.94 µM; in the experiment on HCT-15 colon, 4.9 µM; in the experiment with HT29 colon, 1.62 µM; in the experiment with M14 melanoma, 1.67 µM; in the experiment with OVCAR-3 ovarian it was 0.96 µM; in the experiment on SK-OV-3 ovarian it was 1.9 µM. Further, the figures for the GI50 in the experiment with SW-620 colon, in the experiment with TK-10 renal and in the experiment on UACC-62 melanoma were 0.748 µM, 2.58 µM and 1.72 µM, respectively. In addition, the TGI in the experiment with EKVX NSCLC was over 100 µM; in the experiment with HCT-15 colon it was over 100 µM; in the experiment with HT29 colon it was 3.48 µM; in the experiment with M14 melanoma, 3.65 µM; with OVCAR-3 ovarian, 2.2 µM; in the experiment with SK-OV-3 ovarian it was 3.93 µM. For the same compound, the TGI worked out at 2.42 µM in the experiment on SW-620 colon, 5.77 µM with TK-10 renal and 3.18 µM in the experiment on UACC-62 melanoma.

For `CCCCNC(=O)OCC(COc1ccccc1OC)OC(=O)NCCCC` (stereo not drawn), the TGI in the experiment on EKVX NSCLC, in the experiment on HCT-15 colon, in the experiment with HT29 colon, with M14 melanoma, in the experiment with OVCAR-3 ovarian and with SK-OV-3 ovarian was over 100 µM in each case. In addition, the TGI in the experiment with SW-620 colon, in the experiment on TK-10 renal and in the experiment with UACC-62 melanoma was over 100 µM each time.

Turning to `COc1ccc(OC)c(/C=C/C(=O)C(C)(C)C)c1`, the TGI stood at 43.9 µM in the experiment on EKVX NSCLC; 41.2 µM in the experiment on HCT-15 colon; 64.1 µM in the experiment with HT29 colon; 30.2 µM in the experiment with M14 melanoma; 49.5 µM in the experiment with OVCAR-3 ovarian; 90.4 µM in the experiment on SK-OV-3 ovarian. Moreover, the TGI came out at 38.6 µM in the experiment with SW-620 colon, 72.7 µM with TK-10 renal and 23.4 µM with UACC-62 melanoma.

With `O=c1c2cc(Br)ccc2nc(-c2ccccc2)n1NCC1(O)OCC(O)C(O)C1O` (stereo not drawn), the TGI in the experiment on EKVX NSCLC, in the experiment with HCT-15 colon, in the experiment with HT29 colon, with M14 melanoma, with OVCAR-3 ovarian and with SK-OV-3 ovarian was over 100 µM in each case. The TGI in the experiment on SW-620 colon and in the experiment on UACC-62 melanoma was over 100 µM in each case.

Turning to `CSc1c(S(C)=O)[nH]c2cc(Br)cc(Br)c12` (stereo not drawn), the TGI was found to be 59.7 µM in the experiment on EKVX NSCLC; 70.8 µM in the experiment on HCT-15 colon; 72.1 µM with HT29 colon; 61.5 µM with M14 melanoma; 45 µM with OVCAR-3 ovarian; 61.9 µM in the experiment on SK-OV-3 ovarian. Besides, the results for the TGI in the experiment with SW-620 colon, in the experiment with TK-10 renal and in the experiment with UACC-62 melanoma were over 100 µM, 78.1 µM and 39.3 µM, respectively.

Take `Cc1cc2c(=O)cc(-c3ccc(C(F)(F)F)cc3)oc2c(C(=O)O)c1C`: the TGI in the experiment with EKVX NSCLC, with HCT-15 colon, with HT29 colon, in the experiment with M14 melanoma, in the experiment with OVCAR-3 ovarian and in the experiment on SK-OV-3 ovarian was over 100 µM throughout. The TGI in the experiment with SW-620 colon, with TK-10 renal and in the experiment on UACC-62 melanoma was over 100 µM throughout.

Turning to `CC(C)[C@H]1CO[C@@H]2O[C@H](C)CC(=O)N21`, the TGI in the experiment on EKVX NSCLC, in the experiment with HCT-15 colon, with HT29 colon, in the experiment with M14 melanoma, in the experiment with OVCAR-3 ovarian and in the experiment with SK-OV-3 ovarian was over 100 µM in each case. In addition, the TGI with SW-620 colon, with TK-10 renal and with UACC-62 melanoma was over 100 µM in each case.
